From publication PMC3119665, “A New Drug Design Targeting the Adenosinergic System for Huntington's Disease” (PLoS ONE, 2011)

Columns and labels:
Transporter, Dopamine = target: T1, Transporter, Dopamine (Homo sapiens, UniProt Q01959); assay: Radioligand binding panel (Table S1); settings: 10 μM T1-11, n 2
T1 construct: purchased MDS Pharma Services Taiwan

Adrenergic β 3 = target: T2, Adrenergic β 3 (Homo sapiens, UniProt P13945); assay: Radioligand binding panel (Table S1); settings: 10 μM T1-11, n 2
T2 construct: purchased MDS Pharma Services Taiwan

[1] = T1-11 level in the brain after intraperitoneal injection; format: in vivo, mice; settings: mouse, ip, 5 mg/kg, 30 min after the intraperitoneal injection, n = 4, mean ± s.e.m., read-out: T1-11 detected in the brain
[2] = target: T3, Serotonin (5-Hydroxytryptamine) 5-HT3 (Homo sapiens, UniProt P46098); assay: Radioligand binding panel (Table S1); settings: 10 μM T1-11, n 2
T3 construct: purchased MDS Pharma Services Taiwan
T3 sequence (P46098 24-478): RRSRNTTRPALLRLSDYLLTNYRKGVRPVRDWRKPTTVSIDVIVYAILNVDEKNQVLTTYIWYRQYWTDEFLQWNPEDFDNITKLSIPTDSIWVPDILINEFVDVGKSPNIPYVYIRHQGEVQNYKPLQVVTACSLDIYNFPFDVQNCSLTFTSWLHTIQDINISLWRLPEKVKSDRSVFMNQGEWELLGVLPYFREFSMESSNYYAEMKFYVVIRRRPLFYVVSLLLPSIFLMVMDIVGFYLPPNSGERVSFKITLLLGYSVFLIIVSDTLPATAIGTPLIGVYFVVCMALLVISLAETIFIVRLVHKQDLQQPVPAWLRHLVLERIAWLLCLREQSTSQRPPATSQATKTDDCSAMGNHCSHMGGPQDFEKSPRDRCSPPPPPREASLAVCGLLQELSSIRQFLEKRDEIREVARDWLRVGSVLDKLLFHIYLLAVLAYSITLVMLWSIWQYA

Angiotensin AT2 = target: T4, Angiotensin AT2 (Homo sapiens, UniProt P50052); assay: Radioligand binding panel (Table S1); settings: 10 μM T1-11, n 2
T4 construct: purchased MDS Pharma Services Taiwan

Lipoxygenase 12-LO = target: T5, Lipoxygenase 12-LO (Homo sapiens, UniProt P18054); assay: Radioligand binding panel (Table S1); settings: 10 μM T1-11, n 2
T5 construct: purchased MDS Pharma Services Taiwan

[3] = system: chymotrypsin-like activity of the proteasome; assay: Proteasome activity assay, striatal synaptosomes; format: in vivo; settings: R6/2 mice, 12 weeks old, 0.05 mg/ml in drinking water
Protocol: The chymotrypsin-like activity of the proteasome was determined using a specific proteasome substrate [succinyl (suc)-Leu-Leu-Val-Tyr-7-amino-4-methyl coumarin (AMC)] (Sigma-Aldrich, St Louis, MO, USA) as described earlier. In brief, the synaptosome-enriched fraction (10 µg) were incubated with the substrate (40 µM) in 100 µl of proteasome assay buffer [0.05 M Tris-HCl (pH 8.0), 0.5 mM EDTA, 1 mM ATP, and 1 mM DTT] at 37°C for 60 min where the relationship between the incubation time and product formation remained linear. The fluorescence of the released AMC was detected using a Fluorescence Microplate Reader System (Device, Sunnyvale, CA, USA) at 380-nm excitation and 460-nm emission wavelengths.

R6/2 mice = assay: Rotarod performance of R6/2 mice; format: in vivo
Source text: Male R6/2 mice and littermate controls were originally obtained from Jackson Laboratories (Bar Harbor, ME, USA), and mated to female control mice (B6CBAFI/J). Offspring were identified by a polymerase chain reaction (PCR) genotyping technique of genomic DNA extracted from tail tissues using primers located in the transgene (5′-[…]-3′ and 5′-[…]- AGGAG-3′) to ensure that the number of CAG repeats remained approximately 150. In total, 211 R6/2 transgenic mice were used in this study. Animals were housed at the Institute of Biomedical Sciences Animal Care Facility under a 12-h light/dark cycle. Body weights of mice were recorded once daily. Animal experiments were performed under protocols approved by the Academia Sinica Institutional Animal Care and Utilization Committee, Taipei, Taiwan.
Motor coordination was assessed using a rotarod apparatus (UGO BASILE, Comerio, Italy) at a constant speed (12 rpm) over the period of 2 min [75]. All mice were trained for 2 days at the age of 4 weeks to allow them to become acquainted with the rotarod apparatus. Animals were then tested three times per week from the ages of 4∼12 weeks. For each test, animals were placed in the apparatus before initiation of rotation. Latency to falling was automatically recorded. Each mouse was given three trials for a maximum of 2 min for each trial.

Glutamate, Non-Selective = assay: Radioligand binding panel (Table S1); design: species or system rat; settings: 10 μM T1-11, n 2
[4] = system: GABAA, Chloride Channel, TBOB; assay: Radioligand binding panel (Table S1); design: species or system rat; settings: 10 μM T1-11, n 2
Vanilloid = target: T6, Vanilloid (Rattus norvegicus, UniProt O35433); assay: Radioligand binding panel (Table S1); settings: 10 μM T1-11, n 2
T6 construct: purchased MDS Pharma Services Taiwan
T6 sequence (O35433 whole entry): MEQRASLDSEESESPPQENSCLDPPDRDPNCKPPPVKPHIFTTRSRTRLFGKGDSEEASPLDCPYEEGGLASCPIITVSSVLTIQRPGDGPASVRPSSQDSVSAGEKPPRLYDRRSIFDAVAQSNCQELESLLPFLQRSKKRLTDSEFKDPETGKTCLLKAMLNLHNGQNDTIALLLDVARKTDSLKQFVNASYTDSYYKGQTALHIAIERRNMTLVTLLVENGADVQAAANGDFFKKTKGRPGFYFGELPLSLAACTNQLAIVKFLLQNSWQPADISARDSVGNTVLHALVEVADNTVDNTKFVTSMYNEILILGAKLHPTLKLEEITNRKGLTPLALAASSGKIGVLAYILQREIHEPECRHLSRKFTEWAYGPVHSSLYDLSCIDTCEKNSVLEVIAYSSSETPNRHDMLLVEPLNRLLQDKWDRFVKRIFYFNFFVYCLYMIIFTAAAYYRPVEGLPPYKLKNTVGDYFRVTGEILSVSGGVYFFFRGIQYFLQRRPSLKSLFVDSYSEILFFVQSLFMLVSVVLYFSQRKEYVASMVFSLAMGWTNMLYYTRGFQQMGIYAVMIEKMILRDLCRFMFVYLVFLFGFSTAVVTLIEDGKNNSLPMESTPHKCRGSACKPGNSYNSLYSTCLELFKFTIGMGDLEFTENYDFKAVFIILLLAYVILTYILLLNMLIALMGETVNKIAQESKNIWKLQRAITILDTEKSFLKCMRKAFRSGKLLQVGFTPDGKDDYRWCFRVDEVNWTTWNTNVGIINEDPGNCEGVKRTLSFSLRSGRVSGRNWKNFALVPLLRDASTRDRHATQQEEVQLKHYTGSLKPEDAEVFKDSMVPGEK

Melanocortin MC4 = target: T7, Melanocortin MC4 (Homo sapiens, UniProt P32245); assay: Radioligand binding panel (Table S1); settings: 10 μM T1-11, n 2
T7 construct: purchased MDS Pharma Services Taiwan
T7 sequence (P32245 whole entry): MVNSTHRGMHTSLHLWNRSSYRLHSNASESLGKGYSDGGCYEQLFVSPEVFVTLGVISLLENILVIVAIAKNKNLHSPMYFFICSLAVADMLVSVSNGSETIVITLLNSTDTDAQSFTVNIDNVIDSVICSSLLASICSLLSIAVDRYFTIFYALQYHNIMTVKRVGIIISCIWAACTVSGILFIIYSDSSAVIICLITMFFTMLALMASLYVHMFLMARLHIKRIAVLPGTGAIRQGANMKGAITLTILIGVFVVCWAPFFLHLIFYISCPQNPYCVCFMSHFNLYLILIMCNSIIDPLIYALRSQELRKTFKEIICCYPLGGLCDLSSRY

Tachykinin NK2 = target: T8, Tachykinin NK2 (Homo sapiens, UniProt P21452); assay: Radioligand binding panel (Table S1); settings: 10 μM T1-11, n 2
T8 construct: purchased MDS Pharma Services Taiwan
T8 sequence (P21452 whole entry): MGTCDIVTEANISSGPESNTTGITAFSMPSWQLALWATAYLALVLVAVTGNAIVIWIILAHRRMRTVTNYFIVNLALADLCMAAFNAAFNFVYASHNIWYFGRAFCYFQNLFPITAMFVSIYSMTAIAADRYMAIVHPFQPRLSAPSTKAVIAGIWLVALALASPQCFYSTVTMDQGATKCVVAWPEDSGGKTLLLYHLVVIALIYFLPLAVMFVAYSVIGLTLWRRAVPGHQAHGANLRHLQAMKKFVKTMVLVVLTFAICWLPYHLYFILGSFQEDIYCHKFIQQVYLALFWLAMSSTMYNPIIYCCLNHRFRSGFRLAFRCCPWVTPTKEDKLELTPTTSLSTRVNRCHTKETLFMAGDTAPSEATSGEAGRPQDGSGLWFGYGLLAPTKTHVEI

hERG potassium channel = target: T9, hERG potassium channel (Homo sapiens, UniProt Q12809); assay: Radioligand binding panel (Table S1); settings: 10 μM T1-11, n 2
T9 construct: purchased MDS Pharma Services Taiwan
T9 sequence (Q12809 whole entry): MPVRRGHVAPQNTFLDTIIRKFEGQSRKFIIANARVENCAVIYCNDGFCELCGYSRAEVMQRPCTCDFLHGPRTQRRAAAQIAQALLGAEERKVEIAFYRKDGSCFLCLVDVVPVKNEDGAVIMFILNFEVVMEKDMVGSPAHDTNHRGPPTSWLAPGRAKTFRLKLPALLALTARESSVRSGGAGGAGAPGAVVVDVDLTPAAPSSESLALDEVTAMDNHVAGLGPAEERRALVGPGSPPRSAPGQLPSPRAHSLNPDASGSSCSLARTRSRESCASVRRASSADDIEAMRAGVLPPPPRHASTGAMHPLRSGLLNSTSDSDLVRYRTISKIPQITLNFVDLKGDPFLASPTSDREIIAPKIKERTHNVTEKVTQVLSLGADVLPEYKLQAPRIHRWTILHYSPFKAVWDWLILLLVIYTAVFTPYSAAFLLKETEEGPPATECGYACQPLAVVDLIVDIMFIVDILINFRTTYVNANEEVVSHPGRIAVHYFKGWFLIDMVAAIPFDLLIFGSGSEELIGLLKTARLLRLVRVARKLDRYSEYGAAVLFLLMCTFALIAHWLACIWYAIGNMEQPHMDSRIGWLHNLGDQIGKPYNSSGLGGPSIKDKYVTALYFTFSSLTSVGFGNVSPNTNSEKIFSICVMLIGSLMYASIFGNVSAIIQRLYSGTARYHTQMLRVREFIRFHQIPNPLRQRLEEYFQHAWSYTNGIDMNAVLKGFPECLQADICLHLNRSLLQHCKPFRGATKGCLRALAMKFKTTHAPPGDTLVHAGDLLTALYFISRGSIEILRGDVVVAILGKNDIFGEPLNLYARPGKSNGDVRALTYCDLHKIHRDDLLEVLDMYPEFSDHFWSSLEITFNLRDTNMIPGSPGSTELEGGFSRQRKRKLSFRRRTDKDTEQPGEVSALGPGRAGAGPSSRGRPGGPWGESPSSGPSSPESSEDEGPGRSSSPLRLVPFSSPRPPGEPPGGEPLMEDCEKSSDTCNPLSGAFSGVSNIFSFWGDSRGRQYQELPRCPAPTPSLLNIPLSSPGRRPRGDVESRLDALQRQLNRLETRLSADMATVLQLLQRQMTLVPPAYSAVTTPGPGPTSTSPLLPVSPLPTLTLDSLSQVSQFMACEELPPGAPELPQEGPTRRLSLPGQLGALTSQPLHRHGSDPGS

Gabapentin = assay: Radioligand binding panel (Table S1); design: species or system rat; settings: 10 μM T1-11, n 2
[5] = target: T10, Serotonin (5-Hydroxytryptamine) 5-HT2A (Homo sapiens, UniProt P28223); assay: Radioligand binding panel (Table S1); settings: 10 μM T1-11, n 2
T10 construct: purchased MDS Pharma Services Taiwan
T10 sequence (P28223 whole entry): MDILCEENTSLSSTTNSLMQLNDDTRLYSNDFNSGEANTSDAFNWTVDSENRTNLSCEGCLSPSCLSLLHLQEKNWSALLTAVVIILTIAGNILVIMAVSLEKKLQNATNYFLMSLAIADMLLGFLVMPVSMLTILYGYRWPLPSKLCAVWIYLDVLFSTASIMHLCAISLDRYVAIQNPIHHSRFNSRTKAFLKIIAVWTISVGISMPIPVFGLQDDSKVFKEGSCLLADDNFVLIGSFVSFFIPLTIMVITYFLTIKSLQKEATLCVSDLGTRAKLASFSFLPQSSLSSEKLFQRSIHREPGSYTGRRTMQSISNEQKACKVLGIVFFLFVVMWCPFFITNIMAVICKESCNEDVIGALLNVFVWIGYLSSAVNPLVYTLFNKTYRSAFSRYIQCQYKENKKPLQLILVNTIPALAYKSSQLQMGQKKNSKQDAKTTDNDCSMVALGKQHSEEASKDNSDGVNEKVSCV
Protocol: Radoligand binding assays were performed by MDS Pharma Services Taiwan (Taipei, Taiwan) using standard binding protocols. For the binding assay of the A2AR [67], membrane proteins collected from HEK293 cells overexpressing the human A2AR were incubated in reaction buffer [50 mM Tris-HCl (pH 7.4), 10 mM MgCl2, 1 mM EDTA, and 2 U/mL adenosine deaminase] containing ^3H-CGS21680 (50 nM) for 90 min at 25°C. Nonspecific binding was assessed in the presence of 50 µM adenosine- 5′-N-ethylcarboxamide. […] Nonspecific binding was assessed in the presence of 1 µM IB-MECA (Tocris Bioscience, Ellisville, MS, USA).

Somatostatin sst2 = target: T11, Somatostatin sst2 (Homo sapiens, UniProt P30874); assay: Radioligand binding panel (Table S1); settings: 10 μM T1-11, n 2
T11 construct: purchased MDS Pharma Services Taiwan
T11 sequence (P30874 whole entry): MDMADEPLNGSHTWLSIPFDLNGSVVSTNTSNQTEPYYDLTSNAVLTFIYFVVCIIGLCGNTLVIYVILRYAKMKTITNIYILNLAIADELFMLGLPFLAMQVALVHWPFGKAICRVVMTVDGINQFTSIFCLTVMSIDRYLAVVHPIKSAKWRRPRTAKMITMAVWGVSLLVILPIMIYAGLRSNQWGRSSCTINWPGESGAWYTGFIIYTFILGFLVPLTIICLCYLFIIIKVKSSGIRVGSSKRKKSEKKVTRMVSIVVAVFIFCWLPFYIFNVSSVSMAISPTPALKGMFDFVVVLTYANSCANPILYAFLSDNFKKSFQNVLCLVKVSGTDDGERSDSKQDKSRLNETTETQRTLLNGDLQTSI

[6] = target: T12, Nicotinic Acetylcholine α7, Bungarotoxin (Rattus norvegicus, UniProt Q05941); assay: Radioligand binding panel (Table S1)
T12 construct: purchased MDS Pharma Services Taiwan
T12 sequence (Q05941 23-502): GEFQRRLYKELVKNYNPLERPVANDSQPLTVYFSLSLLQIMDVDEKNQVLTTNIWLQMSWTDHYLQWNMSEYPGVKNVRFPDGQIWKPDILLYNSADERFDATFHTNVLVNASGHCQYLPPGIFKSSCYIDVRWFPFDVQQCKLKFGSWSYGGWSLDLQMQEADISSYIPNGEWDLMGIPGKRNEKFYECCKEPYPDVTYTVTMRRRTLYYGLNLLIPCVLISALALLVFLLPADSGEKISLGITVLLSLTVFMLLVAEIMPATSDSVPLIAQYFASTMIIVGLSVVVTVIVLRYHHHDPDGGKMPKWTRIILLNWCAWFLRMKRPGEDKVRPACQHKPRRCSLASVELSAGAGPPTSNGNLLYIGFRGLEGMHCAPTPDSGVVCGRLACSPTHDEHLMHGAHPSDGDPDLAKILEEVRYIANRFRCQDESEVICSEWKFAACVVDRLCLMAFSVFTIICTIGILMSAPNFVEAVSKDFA

Vasopressin V2 = target: T13, Vasopressin V2 (Homo sapiens, UniProt P30518); assay: Radioligand binding panel (Table S1); settings: 10 μM T1-11, n 2
T13 construct: purchased MDS Pharma Services Taiwan
T13 sequence (P30518 whole entry): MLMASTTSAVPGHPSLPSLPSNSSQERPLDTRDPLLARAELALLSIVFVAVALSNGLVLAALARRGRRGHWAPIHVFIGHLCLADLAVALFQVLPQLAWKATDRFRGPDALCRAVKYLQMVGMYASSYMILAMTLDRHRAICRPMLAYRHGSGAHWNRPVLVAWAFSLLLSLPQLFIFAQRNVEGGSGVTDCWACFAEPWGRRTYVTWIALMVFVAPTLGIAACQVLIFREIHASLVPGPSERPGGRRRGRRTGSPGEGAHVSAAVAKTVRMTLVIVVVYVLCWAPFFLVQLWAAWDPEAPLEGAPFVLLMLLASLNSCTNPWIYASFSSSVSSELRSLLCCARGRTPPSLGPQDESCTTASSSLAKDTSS

OC[C@H]1O[C@@H](n2cnc3c(NCc4ccc(O)cc4)ncnc32)[C@H](O)[C@@H]1O [T1-11, N ^6-(4-hydroxybenzyl)adenine riboside]
inhibition at 10 µM (Transporter, Dopamine): -6% | inhibition at 10 µM (Adrenergic β 3): -1% | concentration at 30 min [1]: 0.12 ± 0.01 ng/g | inhibition at 10 µM [2]: 5% | inhibition at 10 µM (Angiotensin AT2): 3% | inhibition at 10 µM (Lipoxygenase 12-LO): 9% | Chymotrypsin-like activity in striatal synaptosome fractions [3]: significantly enhanced chymotrypsin-like activity in the HD striatum | Motor coordination (rotarod performance) (R6/2 mice; 0.05 mg/ml in drinking water from the age of 7 weeks): counteracted the progressive deterioration in motor coordination | Motor deterioration (rotarod performance) (R6/2 mice; subcutaneous Alzet minipump, 125 µg/mouse/day): improved motor deterioration | % Inhibition (Glutamate, Non-Selective): -1% | % Inhibition [4]: -3% | inhibition at 10 µM (Vanilloid): 8% | inhibition at 10 µM (Melanocortin MC4): 5% | inhibition at 10 µM (Tachykinin NK2): 3% | inhibition at 10 µM (hERG potassium channel): -2% | % Inhibition (Gabapentin): 8% | inhibition at 10 µM [5]: 19% | inhibition at 10 µM (Somatostatin sst2): 9% | inhibition at 10 µM [6]: -1% | inhibition at 10 µM (Vasopressin V2): -5%
